Consider 26 molecules from patent US9981942B2, “Piperidine derivatives having multimodal activity against pain” (LABORATORIOS DEL DR. ESTEVE S.A., priority 2013, dated 2018).

SMILES strings stand for the structures. Some results are limits rather than exact numbers.

One experiment relates to σ1 receptor and the μ-opiod receptor. The experiment is described as follows: μ and σ1 dual binding: combined class from the Ki of both radioligand assays. On the set-up: species or system human; key to μ and σ1 dual binding: +: Both Ki-μ and Ki-σ1>=500 nM; ++: One Ki<500 nM while the other Ki is >=500 nM; +++: Both Ki-μ and Ki-σ1<500 nM; ++++: Both Ki-μ and Ki-σ1<100 nM. Conditions: combined class for Ki-μ and Ki-σ1; transfected HEK-293 membranes (σ1), transfected CHO-K1 cell membranes (μ). The gist of the method:
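Classes combine both Ki values, split at 500 nM and 100 nM. Human μ-opioid binding used 1 nM [3H]-DAMGO on CHO-K1 membranes (27 °C, 60 min, pH 7.4, naloxone 10 μM for NSB); human σ1 used 5 nM [3H](+)-pentazocine on HEK-293 membranes (37 °C, 120 min, pH 8, haloperidol 10 μM for NSB).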
`CC(C)S(=O)(=O)Nc1cccc([C@@H]2CCN(Cc3cn(Cc4ccccn4)nn3)C[C@@H]2O)c1` [Example 125, N-(3-((3R,4S)-3-hydroxy-1-((1-(pyridin-2-ylmethyl)-1H-1,2,3-triazol-4-yl)methyl)piperidin-4-yl)phenyl)propane-2-sulfonamide]: the “μ and σ1 dual binding” value is given as “++”.

As for `CC(C)S(=O)(=O)Nc1cccc(C2CCN(Cc3cn(Cc4cc(N=[N+]=[N-])ccn4)nn3)CC2)c1` [Example 128], the “μ and σ1 dual binding” value is “++”.

For `CC(C)S(=O)(=O)Nc1cccc(C2CCN(Cc3cn(Cc4cnc(C(F)(F)F)nc4)nn3)CC2)c1` [Example 129, N-(3-(1-((1-((2-(trifluoromethyl)pyrimidin-5-yl)methyl)-1H-1,2,3-triazol-4-yl)methyl)piperidin-4-yl)phenyl)propane-2-sulfonamide], the “μ and σ1 dual binding” value was “++”.

With `CC(C)S(=O)(=O)Nc1cccc(C2CCN(Cc3cn(C(CO)c4ccccc4)nn3)CC2)c1` (centres unmarked) [Example 130, N-(3-(1-((1-(2-hydroxy-1-phenylethyl)-1H-1,2,3-triazol-4-yl)methyl)piperidin-4-yl)phenyl)propane-2-sulfonamide], the “μ and σ1 dual binding” value is listed as “++”.

For the molecule `CS(=O)(=O)Nc1cccc(C2CCN(Cc3cn(C(CO)c4ccccc4)nn3)CC2)c1` (centres unmarked) [Example 131, N-(3-(1-((1-(2-hydroxy-1-phenylethyl)-1H-1,2,3-triazol-4-yl)methyl)piperidin-4-yl)phenyl)methanesulfonamide], the “μ and σ1 dual binding” value is “++”.

In the case of `CC(C)S(=O)(=O)Nc1cccc(C2CCN(Cc3cn(Cc4ccc(F)cn4)nn3)CC2)c1` [Example 135, N-(3-(1-((1-((5-fluoropyridin-2-yl)methyl)-1H-1,2,3-triazol-4-yl)methyl)piperidin-4-yl)phenyl)propane-2-sulfonamide], the “μ and σ1 dual binding” value is on record as “++”.

On to `c1ccc(Cn2cc(CN3CCC(c4cccc(-c5ncc[nH]5)c4)CC3)nn2)nc1` [Example 139, 2-((4-((4-(3-(1H-imidazol-2-yl)phenyl)piperidin-1-yl)methyl)-1H-1,2,3-triazol-1-yl)methyl)pyridine], for which the “μ and σ1 dual binding” value is on record as “++”.

The same experiment, now with this note: transfected HEK-293 membranes (σ1), transfected CHO-K1 cell membranes (μ).
Regarding `Oc1cccc(C2CCN(Cc3cn(Cc4cccc(F)n4)nn3)CC2)c1` [Example 132, 3-(1-((1-((6-fluoropyridin-2-yl)methyl)-1H-1,2,3-triazol-4-yl)methyl)piperidin-4-yl)phenol], the Ki range for both μ and σ1 (dual-binding class) was < 500 nM.

With `Oc1cccc(C2CCN(Cc3cn(Cc4ccc(F)cn4)nn3)CC2)c1` [Example 133, 3-(1-((1-((5-fluoropyridin-2-yl)methyl)-1H-1,2,3-triazol-4-yl)methyl)piperidin-4-yl)phenol], the Ki range for both μ and σ1 (dual-binding class) is < 500 nM.

With `Oc1cccc(C2CCN(Cc3cn(Cc4ncccc4F)nn3)CC2)c1` [Example 134, 3-(1-((1-((3-fluoropyridin-2-yl)methyl)-1H-1,2,3-triazol-4-yl)methyl)piperidin-4-yl)phenol], the Ki range for both μ and σ1 (dual-binding class) is < 500 nM.

Regarding `Oc1cc(C2CCN(Cc3cn(Cc4ccccn4)nn3)CC2)ccc1F` [Example 136, 2-fluoro-5-(1-((1-(pyridin-2-ylmethyl)-1H-1,2,3-triazol-4-yl)methyl)piperidin-4-yl)phenol], the Ki range for both μ and σ1 (dual-binding class) was < 500 nM.

Regarding `Oc1ccc(F)c(C2CCN(Cc3cn(Cc4ccccn4)nn3)CC2)c1` [Example 137, 4-fluoro-3-(1-((1-(pyridin-2-ylmethyl)-1H-1,2,3-triazol-4-yl)methyl)piperidin-4-yl)phenol], the Ki range for both μ and σ1 (dual-binding class) is < 500 nM.

`CNS(=O)(=O)c1cccc(C2CCN(Cc3cn(Cc4ccccn4)nn3)CC2)c1` [Example 138, N-methyl-3-(1-((1-(pyridin-2-ylmethyl)-1H-1,2,3-triazol-4-yl)methyl)piperidin-4-yl)benzenesulfonamide]: the Ki range for both μ and σ1 (dual-binding class) is ≥ 500 nM.

With `NS(=O)(=O)c1cccc(C2CCN(Cc3cn(-c4ccccc4)nn3)CC2)c1` [Example 140, 3-(1-((1-phenyl-1H-1,2,3-triazol-4-yl)methyl)piperidin-4-yl)benzenesulfonamide], the Ki range for both μ and σ1 (dual-binding class) is ≥ 500 nM.

Consider `NS(=O)(=O)c1cccc(C2CCN(Cc3cn(Cc4ccccn4)nn3)CC2)c1` [Example 141, 3-(1-((1-(pyridin-2-ylmethyl)-1H-1,2,3-triazol-4-yl)methyl)piperidin-4-yl)benzenesulfonamide], for which the Ki range for both μ and σ1 (dual-binding class) is ≥ 500 nM.

As for `Oc1cccc(C2CCN(Cc3cn(-c4ccccc4F)nn3)CC2)c1` [Example 142, 3-(1-((1-(2-fluorophenyl)-1H-1,2,3-triazol-4-yl)methyl)piperidin-4-yl)phenol], the Ki range for both μ and σ1 (dual-binding class) is < 100 nM.

On to `Oc1cccc(C2CCN(Cc3cn(-c4ccc(F)cn4)nn3)CC2)c1` [Example 143, 3-(1-((1-(5-fluoropyridin-2-yl)-1H-1,2,3-triazol-4-yl)methyl)piperidin-4-yl)phenol], for which the Ki range for both μ and σ1 (dual-binding class) was < 100 nM.

Consider `Oc1cccc(C2CCN(Cc3cn(Cc4ncccc4Cl)nn3)CC2)c1` [Example 144, 3-(1-((1-((3-chloropyridin-2-yl)methyl)-1H-1,2,3-triazol-4-yl)methyl)piperidin-4-yl)phenol], for which the Ki range for both μ and σ1 (dual-binding class) is < 500 nM.

Consider `Oc1cccc(C2CCN(Cc3cn(Cc4cccnc4)nn3)CC2)c1` [Example 145, 3-(1-((1-(pyridin-3-ylmethyl)-1H-1,2,3-triazol-4-yl)methyl)piperidin-4-yl)phenol], for which the Ki range for both μ and σ1 (dual-binding class) was < 500 nM.

As to `Oc1cccc(C2CCN(Cc3cn(-c4c(F)cccc4F)nn3)CC2)c1` [Example 146, 3-(1-((1-(2,6-difluorophenyl)-1H-1,2,3-triazol-4-yl)methyl)piperidin-4-yl)phenol], the Ki range for both μ and σ1 (dual-binding class) is < 100 nM.

In the case of `Oc1cccc(C2CCN(Cc3cn(-c4ccc(F)c(F)c4)nn3)CC2)c1` [Example 147, 3-(1-((1-(3,4-difluorophenyl)-1H-1,2,3-triazol-4-yl)methyl)piperidin-4-yl)phenol], the Ki range for both μ and σ1 (dual-binding class) is < 100 nM.

Regarding `Oc1cccc(C2CCN(Cc3cn(-c4ccc(Cl)cn4)nn3)CC2)c1` [Example 148, 3-(1-((1-(5-chloropyridin-2-yl)-1H-1,2,3-triazol-4-yl)methyl)piperidin-4-yl)phenol], the Ki range for both μ and σ1 (dual-binding class) was < 100 nM.

Take `Oc1cccc(C2CCN(Cc3cn(Cc4ncccc4C(F)(F)F)nn3)CC2)c1` [Example 151, 3-(1-((1-((3-(trifluoromethyl)pyridin-2-yl)methyl)-1H-1,2,3-triazol-4-yl)methyl)piperidin-4-yl)phenol]: the Ki range for both μ and σ1 (dual-binding class) was < 500 nM.

Regarding `Oc1cccc(C2CCN(Cc3cn(Cc4ccc(C(F)(F)F)cn4)nn3)CC2)c1` [Example 152], the Ki range for both μ and σ1 (dual-binding class) was < 100 nM.

Take `Oc1cccc(C2CCN(Cc3cn(Cc4ccc(Cl)cn4)nn3)CC2)c1` [Example 153, 3-(1-((1-((5-chloropyridin-2-yl)methyl)-1H-1,2,3-triazol-4-yl)methyl)piperidin-4-yl)phenol]: the Ki range for both μ and σ1 (dual-binding class) was < 100 nM.

As to `Oc1cccc(C2CCN(Cc3cn(-c4ncccc4F)nn3)CC2)c1` [Example 154, 3-(1-((1-(3-fluoropyridin-2-yl)-1H-1,2,3-triazol-4-yl)methyl)piperidin-4-yl)phenol], the Ki range for both μ and σ1 (dual-binding class) is < 500 nM.
